The record followed here is US9603896B2, “Peptide compounds and methods of production and use thereof” (priority 2012, dated 2017).

Like-named read-outs stand apart in the source and are kept apart here. Ends that are not written are not given here.

For experiment [1], the system named is Pseudomonas aeruginosa ATCC® 27853™. The experiment is classed as cell-based. The note with it: 180 minutes.
Experiment [2] has as its system P. aeruginosa (ATCC® 27853™). The experiment is described as follows: Pseudomonas keratitis model in the mouse eye. It counts as in vivo. The note with it: topical, doses of 10 and 20 mg/ml. As to the method: A circular wound was created on the mouse cornea by removing the epithelium and infected with 10^5 colony forming units (CFU) of P. aeruginosa (ATCC® 27853™ (American Type Culture Collection, Manassas, Va.)). Infected wounds were treated with saline (0.9% sodium chloride, vehicle control) or saline containing indicated concentrations of peptide every 15 minutes for 2 hours, then every 30 minutes for 3 hours on the first day. Infected wounds were treated twice on the second day and once on the third day. Mice were killed at 48 hours post-infection, and CFU/eye were quantified. The means were plotted and are representative of 5 to 9 mice per group. Mann Whitney test was performed for each group as compared to the saline control group. *P=0.014.
A circular wound (2 mm) was created on the mouse cornea by removing the epithelium and infecting the wound with 10^5 CFU of P. aeruginosa (ATCC® 27853™ (American Type Culture Collection, Manassas, Va.)). Infected wounds were treated with saline or saline containing indicated concentrations of peptide every 15 minutes for 2 hours, then every 30 minutes for 3 hours on the first day. Infected wounds were treated twice on the second day and once on the third day. Mice were killed at 48 hours post-infection, and the colony forming units per eye (CFU/eye) were quantified. The means are plotted and are representative of 5 to 9 mice per group. Mann Whitney test was performed for each group as compared to the saline control group.
For FIGS. 15-17, in vivo bactericidal activity of the peptides was also investigated using the standard Pseudomonas keratitis model in the mouse eye (FIGS. 15-17). Peptides 120-146QR-5RMP (SEQ ID NO:32), 120-146WH (SEQ ID NO:31), and 120-146WR (SEQ ID NO: 30) were applied topically at doses of 2, 5, 10, and 20 mg/ml to the wounded cornea that had been infected with 10^5 CFU of Pseudomonas aeruginosa. The efficacies of the peptides were compared to treatment with the vehicle control. Mice were euthanized at 48 hours post infection, and the CFU/eye were quantified.

“GTRCQVAGWGSWHSGGRLSRFPRFVNV [Peptide 120-146WH]”: the “reduction of CFU (FIG. 14)” value in experiment [1] (pH 5.5, highest concentrations (150 μg/ml)) turned out to be 6 logs. The “reduction of CFU/ml” value in experiment [1] (pH 7.2, highest concentrations of peptides (25 μM)) is 6 logs. Moreover, the “bactericidal activity against Pseudomonas aeruginosa” value in experiment [1] (pH 7.2, peptides at 25 μM) was “as effective as the standard antibiotic gentamicin”. Further, in experiment [2], the “CFU/eye at 48 hours post infection vs saline” value was “significantly reduced the CFU/eye”.

For “LDREANLTSSVTILPLPLQNATVEAGTR (listed as Homo sapiens) [Peptide 95-122]”, the “bactericidal activity against Pseudomonas aeruginosa” value in experiment [1] (pH 5.5, peptides up to 25 μM) was “not active”; in experiment [1] (pH 7.2, peptides at 25 μM), “not active”.
